From PubChem BioAssay (NCI)
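Five concentrations, 48 hours, 96-well plates. At the TGI there is no net growth.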

Columns and labels:
Test in all cases: growth of human tumour cells (NCI), 48 h
HT29 colon = test system: HT29 colon
K-562 leukemia = test system: K-562 leukemia
MDA-MB-231 breast = test system: MDA-MB-231 breast
NCI-H460 lung = test system: NCI-H460 lung

CC1(C)C[C@H]2C3=CC[C@@H]4[C@@]5(C)CC[C@H](O)C(C)(C)[C@@H]5CC[C@@]4(C)[C@]3(C)C[C@@H](O)[C@@]23C[C@@H]1OC3=O
TGI (HT29 colon): > 100 µM | TGI (K-562 leukemia): > 100 µM | TGI (MDA-MB-231 breast): > 100 µM | TGI (NCI-H460 lung): > 100 µM

CC(C)[Si](OCC/C=C/C1CCC(=O)C1C(O)C1CCCCC1)(C(C)C)C(C)C (stereo unspecified)
TGI (HT29 colon): 26.2 µM | TGI (K-562 leukemia): 47 µM | TGI (MDA-MB-231 breast): 36.3 µM | TGI (NCI-H460 lung): 30.7 µM

NC(=Nc1ccc(Cl)c(Cl)c1)c1ccccc1N
TGI (HT29 colon): > 100 µM | TGI (K-562 leukemia): 41.9 µM | TGI (MDA-MB-231 breast): > 100 µM | TGI (NCI-H460 lung): > 100 µM

Cc1ccc2nc(CN3CCCCC3)cc(=O)n2c1
TGI (HT29 colon): > 100 µM | TGI (K-562 leukemia): > 100 µM | TGI (MDA-MB-231 breast): > 100 µM | TGI (NCI-H460 lung): > 100 µM

COC(=O)C(Cc1ccccc1)C(=O)NC(CNC(=O)OCc1ccccc1)C(=O)OCc1ccccc1 (stereo unspecified)
TGI (HT29 colon): > 61.2 µM | TGI (K-562 leukemia): 45 µM | TGI (MDA-MB-231 breast): 50.3 µM | TGI (NCI-H460 lung): > 100 µM

CC/C(=C/OC)P1(=O)OC(C)(C)CN1C(C)(C)C (stereo unspecified)
TGI (HT29 colon): > 100 µM | TGI (K-562 leukemia): > 100 µM | TGI (MDA-MB-231 breast): > 100 µM | TGI (NCI-H460 lung): > 100 µM

CNC(=O)C(C)NC(=O)C(Cc1ccccc1)NC(=O)OC(C)(C)C (stereo unspecified)
TGI (HT29 colon): > 100 µM | TGI (K-562 leukemia): > 100 µM | TGI (MDA-MB-231 breast): > 100 µM | TGI (NCI-H460 lung): > 100 µM

CCN(CC)CCN1CCN=c2c3cc(OC)ccc3n3cnc4ccc1c2c43
TGI (HT29 colon): 1.81 µM | TGI (K-562 leukemia): 2.68 µM | TGI (MDA-MB-231 breast): 2.33 µM | TGI (NCI-H460 lung): 0.724 µM

CCOC(=O)Cc1nc2nn(Cc3ccccc3)cc2c(=O)[nH]1
TGI (HT29 colon): > 100 µM | TGI (K-562 leukemia): > 100 µM | TGI (MDA-MB-231 breast): > 100 µM | TGI (NCI-H460 lung): > 100 µM

CCOP(=O)(CCC(O)CNc1nc(N)nc(Cl)c1N=Nc1ccc(Cl)cc1)OCC (stereo unspecified)
TGI (HT29 colon): 28.8 µM | TGI (K-562 leukemia): > 100 µM | TGI (MDA-MB-231 breast): > 100 µM | TGI (NCI-H460 lung): 26.1 µM

CCC/C(Cl)=N\OC(=O)Nc1ccc(Br)cc1
TGI (HT29 colon): 44.1 µM | TGI (K-562 leukemia): 4.15 µM | TGI (MDA-MB-231 breast): 33.8 µM | TGI (NCI-H460 lung): 34.6 µM

O=C(n1[nH]c(=O)n(-c2ccc([N+](=O)[O-])cc2)c1=O)C(Cl)(Cl)Cl
TGI (HT29 colon): > 75 µM | TGI (K-562 leukemia): > 75 µM | TGI (MDA-MB-231 breast): > 75 µM | TGI (NCI-H460 lung): > 75 µM

CC1=C/C(=N\N(C)C)C(C(O)(C(F)(F)F)C(F)(F)F)C(C)(C)C1 (stereo unspecified)
TGI (HT29 colon): > 100 µM | TGI (K-562 leukemia): > 100 µM | TGI (MDA-MB-231 breast): > 100 µM | TGI (NCI-H460 lung): > 100 µM

Clc1cccc(Cl)c1C1SCc2nc3cc4ccccc4cc3n21 (stereo unspecified)
TGI (HT29 colon): > 100 µM | TGI (K-562 leukemia): > 100 µM | TGI (MDA-MB-231 breast): > 100 µM | TGI (NCI-H460 lung): > 100 µM
